ChEMBL document CHEMBL1141066, “Acetylenic TACE inhibitors. Part 2: SAR of six-membered cyclic sulfonamide hydroxamates” (Bioorg Med Chem Lett, 2005)

How the values were obtained:
[1] = target: Collagenase 3 (Homo sapiens, UniProt P45452); experiment: Inhibitory activity against matrix metallopeptidase 13
[2] = tested on: THP-1; experiment: Percentage inhibition of TNF production in LPS-stimulated THP-1 cells; format: functional, Homo sapiens
[3] = target: T1, Interstitial collagenase (Homo sapiens, UniProt P03956); experiment: Inhibitory activity against matrix metallopeptidase 1
T1 sequence (P03956 whole entry): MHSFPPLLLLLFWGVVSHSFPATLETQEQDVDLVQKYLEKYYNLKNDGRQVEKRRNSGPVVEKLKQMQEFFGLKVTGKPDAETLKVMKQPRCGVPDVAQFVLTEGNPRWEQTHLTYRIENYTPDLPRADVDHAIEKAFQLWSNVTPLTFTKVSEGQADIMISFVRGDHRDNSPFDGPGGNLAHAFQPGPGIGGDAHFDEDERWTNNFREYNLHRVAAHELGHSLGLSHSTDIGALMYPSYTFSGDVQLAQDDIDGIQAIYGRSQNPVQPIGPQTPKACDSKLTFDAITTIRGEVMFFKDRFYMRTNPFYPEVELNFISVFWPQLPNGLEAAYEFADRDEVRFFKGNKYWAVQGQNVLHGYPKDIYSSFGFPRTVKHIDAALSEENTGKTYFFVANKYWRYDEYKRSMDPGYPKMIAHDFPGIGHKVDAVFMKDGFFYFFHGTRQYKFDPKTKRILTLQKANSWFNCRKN

[4] = target: Disintegrin and metalloproteinase domain-containing protein 17 (Homo sapiens, UniProt P78536); experiment: Inhibitory activity against TACE[ADAM metallopeptidase domain 17] in isolated enzyme assay
Disintegrin and metalloproteinase domain-containing protein 17, sequence (P78536 whole entry, the tested form may be a part): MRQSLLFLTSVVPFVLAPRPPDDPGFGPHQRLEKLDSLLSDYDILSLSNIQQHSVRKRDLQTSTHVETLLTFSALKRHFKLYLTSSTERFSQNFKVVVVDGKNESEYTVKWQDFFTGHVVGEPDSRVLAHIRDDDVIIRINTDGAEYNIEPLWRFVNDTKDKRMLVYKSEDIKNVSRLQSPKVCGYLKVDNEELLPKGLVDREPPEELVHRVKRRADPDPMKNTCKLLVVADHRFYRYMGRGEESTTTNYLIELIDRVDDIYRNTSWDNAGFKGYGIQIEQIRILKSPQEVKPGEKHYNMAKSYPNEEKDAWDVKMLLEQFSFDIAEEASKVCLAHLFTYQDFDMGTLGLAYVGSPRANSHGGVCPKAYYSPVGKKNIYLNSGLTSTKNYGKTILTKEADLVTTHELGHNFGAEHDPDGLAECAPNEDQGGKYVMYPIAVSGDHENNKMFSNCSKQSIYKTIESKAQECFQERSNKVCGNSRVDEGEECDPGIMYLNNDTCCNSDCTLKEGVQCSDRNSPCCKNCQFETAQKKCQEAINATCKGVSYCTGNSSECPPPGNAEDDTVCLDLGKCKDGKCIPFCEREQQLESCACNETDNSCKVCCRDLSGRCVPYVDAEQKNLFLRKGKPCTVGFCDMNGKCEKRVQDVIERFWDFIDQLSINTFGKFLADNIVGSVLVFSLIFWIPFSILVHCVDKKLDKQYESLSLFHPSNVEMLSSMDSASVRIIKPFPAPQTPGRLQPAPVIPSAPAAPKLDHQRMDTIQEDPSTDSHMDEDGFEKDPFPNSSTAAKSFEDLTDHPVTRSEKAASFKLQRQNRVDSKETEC

SMILES | IC50 [1] [nM] | IC50 [4] [nM] | other results
CC#CCOc1ccc(S(=O)(=O)N2CCNCC2C(=O)NO)cc1 (configuration not stated) | 8 | – | Inhibition [2]: 71%
CC#CCOc1ccc(S(=O)(=O)N2CCSC(C)(C)C2C(=O)NO)cc1 (configuration not stated) | – | – | IC50 [3]: 7 nM
CC#CCOc1ccc(S(=O)(=O)N2CCN(C(=O)OC)CC2C(=O)NO)cc1 (configuration not stated) | 9 | – | –
CC#CCOc1ccc(S(=O)(=O)N2CCSCC2C(=O)NO)cc1 (configuration not stated) | – | 3 | –
CC#CCOc1ccc(S(=O)(=O)N2CCN(S(C)(=O)=O)CC2C(=O)NO)cc1 (configuration not stated) | 6 | – | –
CC#CCOc1ccc(S(=O)(=O)N2CCOCC2C(=O)NO)cc1 (configuration not stated) | – | 5 | –
